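Values below derive from 48-hour exposures of cells grown in 96-well plates, with endpoints linearly interpolated between the two concentrations bracketing the appropriate inhibition level. TGI denotes the concentration required for complete inhibition of growth.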
Assays:
Assay in all cases: NCI anticancer screen, dose series, 48 h
[1] = system: UACC-62 melanoma
[2] = system: MDA-MB-435
[3] = system: SR leukemia
[4] = system: MCF7 breast
[5] = system: CCRF-CEM leukemia
[6] = system: UO-31 renal
[7] = system: COLO 205 colon
[8] = system: U251 CNS
[9] = system: M19-MEL melanoma
[10] = system: SF-268 CNS
[11] = system: DU-145 prostate
[12] = system: HOP-18 NSCLC
[13] = system: SK-MEL-28 melanoma
[14] = system: CAKI-1 renal
[15] = system: ACHN renal
[16] = system: UACC-257 melanoma
[17] = system: IGROV1 ovarian
[18] = system: EKVX NSCLC
[19] = system: KM20L2 colon
[20] = system: TK-10 renal
[21] = system: HCT-116 colon
[22] = system: MALME-3M melanoma
[23] = system: SK-MEL-5 melanoma
[24] = system: DLD-1 colon
[25] = system: SF-539 CNS
[26] = system: BT-549 breast
[27] = system: DMS 273 small cell lung
[28] = system: RPMI-8226 leukemia
[29] = system: HOP-92 NSCLC
[30] = system: LXFL 529 NSCLC
[31] = system: OVCAR-4 ovarian
[32] = system: K-562 leukemia
[33] = system: OVCAR-8 ovarian
[34] = system: A549 NSCLC
[35] = system: A498 renal
[36] = system: SF-295 CNS
[37] = system: NCI-H23 lung
[38] = system: LOX IMVI melanoma
[39] = system: DMS 114 small cell lung
[40] = system: T-47D breast
[41] = system: HCC-2998 colon
[42] = system: SNB-19 CNS
[43] = system: NCI-H522 lung
[44] = system: OVCAR-3 ovarian
[45] = system: HL-60(TB) leukemia
[46] = system: MDA-MB-231 breast
[47] = system: HS 578T breast
[48] = system: OVCAR-5 ovarian
[49] = system: NCI-H226 lung
[50] = system: RXF 393 renal
[51] = system: 786-0 renal
[52] = system: HCT-15 colon
[53] = system: SNB-75 CNS
[54] = system: NCI/ADR-RES ovarian
[55] = system: SW-620 colon
[56] = system: M14 melanoma
[57] = system: HT29 colon
[58] = system: PC-3 prostate
[59] = system: KM12 colon
[60] = system: NCI-H460 lung
[61] = system: SK-MEL-2 melanoma
[62] = system: MOLT-4 leukemia
[63] = system: SK-OV-3 ovarian
[64] = system: SN12C renal
[65] = system: HOP-62 NSCLC

With `CC[N+]1(C)CCC(O)(c2ccccc2)C(C(=O)c2ccccc2)C1` (stereo unspecified) the TGI [1] was 38.6 µM, the TGI [2] was 34.2 µM and the TGI [3] was 15.6 µM. The TGI [4] was 9.6 µM, the TGI [5] was 6.89 µM and the TGI [6] was 33.6 µM. It also gave a TGI [7] of 36.7 µM, a TGI [8] of 43.2 µM and a TGI [9] of 36 µM. The TGI [10] was 59.8 µM, the TGI [11] was 44.6 µM and the TGI [12] was 31 µM. The TGI [13] was 30.9 µM, the TGI [14] was 7.51 µM and the TGI [15] was 23 µM. It also gave a TGI [16] of 32.7 µM, a TGI [17] of 38.6 µM and a TGI [18] of 43.4 µM. The TGI [19] was 44.5 µM, the TGI [20] was 31.4 µM and the TGI [21] was 34.7 µM. For the same molecule, the TGI [22] was 32.6 µM, the TGI [23] was 33.6 µM and the TGI [24] was 27.2 µM. The TGI [25] was 31.3 µM, the TGI [26] was 27.7 µM and the TGI [27] was 47.1 µM. For the same molecule, the TGI [28] was 6.37 µM, the TGI [29] was 25.4 µM and the TGI [30] was 23.6 µM. The TGI [31] was 25.9 µM, the TGI [32] was 13.2 µM and the TGI [33] was 59.1 µM. For the same molecule, the TGI [34] was 27.9 µM, the TGI [35] was 30.7 µM and the TGI [36] was 35.9 µM. It also gave a TGI [37] of 40.8 µM, a TGI [38] of 36.8 µM and a TGI [39] of 44.3 µM. For the same molecule, the TGI [40] was 39.7 µM, the TGI [41] was 49.8 µM and the TGI [42] was 24.5 µM. For the same molecule, the TGI [43] was 3.29 µM, the TGI [44] was 45.7 µM and the TGI [45] was 15.9 µM. The TGI [46] was 42.7 µM, the TGI [47] was 74 µM and the TGI [48] was 35.5 µM. It also gave a TGI [49] of 38.8 µM, a TGI [50] of 26.6 µM and a TGI [51] of 18.8 µM. The TGI [52] was 21.8 µM, the TGI [53] was 24.3 µM and the TGI [54] was 83.6 µM. For the same molecule, the TGI [55] was 4.58 µM, the TGI [56] was 24.1 µM and the TGI [57] was 31.8 µM. The TGI [58] was 33.9 µM, the TGI [59] was 39.3 µM and the TGI [60] was 43 µM. For the same molecule, the TGI [61] was 37.7 µM, the TGI [62] was 11.3 µM and the TGI [63] was 32.1 µM. For the same molecule, the TGI [64] was 21.6 µM and the TGI [65] was 48.2 µM.

With `COc1ccc(/C=C2\SC(c3ccc(OC)cc3)N(NC(=O)Cc3ccccc3)C2=O)cc1` (stereo unspecified) the TGI [1] was greater than 100 µM, the TGI [3] was greater than 100 µM and the TGI [5] was greater than 100 µM. For the same molecule, the TGI [6] was greater than 100 µM, the TGI [7] was greater than 100 µM and the TGI [8] was greater than 100 µM. For the same molecule, the TGI [9] was greater than 100 µM, the TGI [10] was greater than 100 µM and the TGI [12] was greater than 100 µM. The TGI [13] was greater than 100 µM, the TGI [14] was greater than 100 µM and the TGI [15] was greater than 100 µM. The TGI [16] was greater than 100 µM, the TGI [17] was greater than 100 µM and the TGI [20] was greater than 100 µM. For the same molecule, the TGI [21] was greater than 100 µM, the TGI [22] was greater than 100 µM and the TGI [23] was greater than 100 µM. For the same molecule, the TGI [24] was greater than 100 µM, the TGI [25] was greater than 100 µM and the TGI [27] was greater than 100 µM. The TGI [28] was greater than 100 µM, the TGI [29] was greater than 100 µM and the TGI [30] was greater than 100 µM. It also gave a TGI [31] greater than 100 µM, a TGI [32] greater than 100 µM and a TGI [33] greater than 100 µM. The TGI [34] was greater than 100 µM, the TGI [35] was greater than 100 µM and the TGI [36] was greater than 100 µM. The TGI [37] was greater than 100 µM, the TGI [38] was greater than 100 µM and the TGI [39] was greater than 100 µM. The TGI [43] was greater than 100 µM, the TGI [45] was greater than 100 µM and the TGI [48] was greater than 100 µM. It also gave a TGI [49] greater than 100 µM, a TGI [50] greater than 100 µM and a TGI [51] greater than 100 µM. The TGI [52] was greater than 100 µM, the TGI [53] was greater than 100 µM and the TGI [55] was greater than 100 µM. The TGI [56] was greater than 100 µM, the TGI [57] was greater than 100 µM and the TGI [59] was greater than 100 µM. For the same molecule, the TGI [60] was greater than 100 µM, the TGI [61] was greater than 100 µM and the TGI [62] was greater than 100 µM. The TGI [63] was greater than 100 µM, the TGI [64] was greater than 100 µM and the TGI [65] was greater than 100 µM.

Reference: PubChem BioAssay (NCI)
